Measured values: patent US12071431B2, “Pyridin-sulfonamide compounds for the treatment of conditions related to interleukin 1 beta” (ALLINKY BIOPHARMA, priority 2018, dated 2024)

Tests used:
[1] = tested on: Non-Alcoholic Steatohepatitis (NASH) in male C57BL/6 mice; test: Treatment of non-alcoholic steatohepatitis (NASH) in male C57BL/6 mice (streptozotocin + high-fat diet); format: in vivo
Method: Example 15: Effect of Compound 5 and 7 in the Treatment of Non-Alcoholic Steatohepatitis (NASH) in Male C57BL/6 Mice
Timed pregnant mice (n=30) were selected for the study. The delivered pups were subcutaneously injected on the post-natal day 2 (PND-2) with 200 μg of Streptozotocin and were allowed to remain with the mother until they reached the weanling age. After weanling, the male pups were selected and fed with 60% kcal fat diet (Research Diet-D12492) for the next 2 weeks. All the animals were observed twice daily for clinical signs.
Mice were dosed with vehicle, test compounds and reference compound (elafibranor) twice daily morning (9.00 AM) and evening before the start of dark cycle (6:00 PM) from day 0 to 28.
Animal body weight measurements were made daily for the complete duration of the experiment.
Animals were dosed for 28 days (from week 6 to 10) with the test and reference compounds.
Blood glucose was estimated before the treatment start and on the termination day 28. Serum ALT and AST levels were measured from the plasma before the treatment start and on day 28.
Histopathology analysis including H&E staining, Masson's trichrome staining and Oil-Red-O (ORO) staining was performed for the liver tissues.
All the H&E stained tissue sections were examined by light microscopy. As per the below grading system (Kleiner et al., 2005) in 200× objective lens, NAFLD scoring was done for steatosis, lobular inflammation and hepatic ballooning.
All the Masson's trichrome stained tissue sections were examined by light microscopy in 100× objective lens. Randomly selected five fields (approx 684.85 μm×917.11 m per field) from each liver were subjected to collagen proportion area measurement by using Image Pro Premier 9.1 software. The percentage of collagen proportion area was calculated by dividing collagen tissue area by total tissue area.
All the Oil-Red-O stained tissue sections were examined by light microscopy in 100× objective lens. Randomly selected five fields (approximately 688.33 μm×922.45 μm per field) from each liver were subjected to measure stained area by using Image Pro Premier 9.1 software. The percentage of stained area was calculated by dividing lipid stained tissue area by total tissue area.

[2] = target: Recombinant Human MAPK8 (Homo sapiens, UniProt P45983); test: In vitro binding of JNK1 (MAPK8), SPRi; conditions: 4° C.
Method: Example 13—In Vitro Binding of JNK1 (MAPK8)
Various concentrations of Recombinant Human MAPK8 dissolved in water were manually printed onto a bare gold-coated (thickness 47 nm) PlexArray Nanocapture Sensor Chip (Plexera Bioscience, Seattle, WA, US) at 40% humidity. Each concentration was printed in replicate, and each spot contained 0.2 μL of the protein solution. The chip was incubated in 80% humidity at 4° C. overnight, and rinsed with 10×PBST for 10 min, 1×PBST for 10 min, and deionized water twice for 10 min. The chip was then blocked with 5% (w/v) non-fat milk in water overnight, and washed with 10×PBST for 10 min, 1×PBST for 10 min, and deionized water twice for 10 min before being dried under a stream of nitrogen prior to use.
Surface Plasmon Resonance Imaging (SPRi) measurements were performed with PlexAray HT (Plexera Bioscience, Seattle, WA, US). Collimated light (660 nm) passes through the coupling prism, reflects off the SPR-active gold surface, and is received by the CCD camera. Buffers and samples were injected by a non-pulsatile piston pump into the 30 μL flowcell that was mounted on the coupling prism. Each measurement cycle contained four steps: washing with PBST running buffer at a constant rate of 2 μL/s to obtain a stable baseline, sample injection at 5 μL/s for binding, surface washing with PBST at 2 μL/s for 300 s, and regeneration with 0.5% (v/v) H3PO4 at 2 μL/s for 300 s. All the measurements were performed at 4° C.
The signal changes after binding and washing were recorded in AU as the assay value. Selected protein-grafted regions in the SPR images were analyzed, and the average reflectivity variations of the chosen areas were plotted as a function of time. Real-time binding signals were recorded and analyzed by Data Analysis Module (DAM, Plexera Bioscience, Seattle, WA, US). Kinetic analysis was performed using BIAevaluation 4.1 software (Biacore, Inc.).

[3] = 3 mg/kg dose, twice daily, 28 days, H&E NAFLD scoring

Sequence of Recombinant Human MAPK8 (P45983 whole entry): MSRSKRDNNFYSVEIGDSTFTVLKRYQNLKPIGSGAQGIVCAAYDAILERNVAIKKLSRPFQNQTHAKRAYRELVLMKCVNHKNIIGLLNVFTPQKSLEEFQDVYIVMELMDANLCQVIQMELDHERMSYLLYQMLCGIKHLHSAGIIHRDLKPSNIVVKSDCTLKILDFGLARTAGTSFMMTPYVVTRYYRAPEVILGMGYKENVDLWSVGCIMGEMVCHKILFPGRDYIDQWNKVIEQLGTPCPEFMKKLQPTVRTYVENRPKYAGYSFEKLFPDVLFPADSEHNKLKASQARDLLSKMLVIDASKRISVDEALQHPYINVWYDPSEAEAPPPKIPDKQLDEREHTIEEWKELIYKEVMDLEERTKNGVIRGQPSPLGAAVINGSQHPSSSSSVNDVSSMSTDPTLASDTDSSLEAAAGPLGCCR

CCOc1ccc(Oc2cc(S(=O)(=O)N(C)C)cnc2N2CCC(Oc3ccc(Cl)cc3)CC2)cc1 [Compound 7]
NAFLD activity score (NAS) ([1]; 3 mg/kg dose, twice daily, 28 days, FIG. 1): better NAS score than Elafibranor | lobular inflammation in the liver [1, 3]: significantly reduced | steatosis in the liver [1, 3]: significantly reduced | hepatomegaly and liver to body weight ratio ([1]; 28 days of treatment, FIG. 3): did not show any hepatomegaly and increase in liver to body weight ratio | Serum AST levels ([1]; after 28 days of treatment, FIG. 2): significantly reduced | kon ([2]; association rate, read-out: Ka): 22900 M⁻¹ s⁻¹ | koff ([2]; dissociation rate): 0.000782 s⁻¹ | Kd ([2]; read-out: equilibrium dissociation constant (KD Value)): 34.1 nM
